Assay results taken from patent EP2954896A1, “Small molecule inhibitors of the E3 Ligase Skp2 in depression and other diseases” (Max-Planck-Gesellschaft zur Förderung der Wissenschaften …, priority 2014, dated 2015).

Tested on: autophagy markers
Test: Autophagy markers in protein extracts of hippocampus and prefrontal cortex after acute antidepressant injection
Format: in vivo, mice
Details: 10 mgkg-1
Protocol: Western blot analysis was performed on eluates from ColPs or with protein extracts from cells or tissue. Protein extracts were obtained by lysing cells or tissue (prelysed as described in the paragraph before) in 62.5 mM Tris, 2% SDS and 10% sucrose, supplemented with protease (Sigma, P2714) and phosphatase (Roche, 04906837001) inhibitor cocktail. Samples were sonicated and heated at 95 °C for 5 min. Proteins were separated by SDS-PAGE and electro-transferred onto nitrocellulose membranes. Blots were placed in Tris-buffered saline, supplemented with 0.05% Tween (Sigma, P2287) and 5% non-fat milk for 1 h at room temperature and then incubated with primary antibody (diluted in TBS/0.05% Tween) overnight at 4 °C. The following primary antibodies were used: Beclin1 (1:1000, Cell Signaling, #3495), Atg12 (1:1000, Cell Signaling #2010), LC3B-I/II (1:1000, Cell Signaling, #2775), FLAG (1:7000, Rockland, 600-401-383), FKBP51 (1:1000, Bethyl, A301-430A), Akt (1:1000, Cell Signaling, #4691), pAkt (1:1000, Ser473, T308, 1:1000, Cell Signaling, #4058, #9275), Actin (1:5000, Santa Cruz Biotechnologies, sc-1616), Skp2, myc (Addgene, 19947), GFP (santa cruz biotechnologies, sc-8334), p27 (cell signaling technologies, 3686), pULK,(S757, cell signaling technologies, 6888) APP-CTF (sigma-aldrich, A8717), DNMT1 (1:1000, Imgenex, IMG-261A), phospho-DNMT1 (S154), (1:1000, Abnova, PAB4924), ptau (S622; Santa Cruz Biotechnologies, #sc-16938).
Subsequently, blots were washed and probed with the respective horseradish peroxidase- or fluorophore-conjugated secondary antibody for 1 h at room temperature. The immuno-reactive bands were visualized either using ECL detection reagent (Millipore, Billerica, MA, USA, WBKL0500) or directly by excitation of the respective fluorophore. Determination of the band intensities were performed with BioRad, ChemiDoc MP, or X-ray-films.
The Fkbp51^-/- mouse line was previously generated (Touma C et al. (2011) Biol. Psychiatry 70: 928-936) and fully backcrossed to C57/BI6. […] Hippocampus and prefrontal cortex were extracted.

[1] = Fkbp51+/+ mice, hippocampus and prefrontal cortex

In the case of Fc1ccc([C@@H]2CCNC[C@H]2COc2ccc3c(c2)OCO3)cc1 [PAR, paroxetine], the “level of Atg12” value [1] is reported as “increased”, the “level of Beclin1” value [1] is reported as “increased” and the “level of Vps34” value [1] is reported as “increased”. The “phosphorylation of the kinase Akt (pAktS473)” value [1] was “evoked dephosphorylation” and the “protein levels of autophagy markers and pAktS473” value (Fkbp51-/- mice, either brain region) was “no alterations”.
